Target: T1, ΔF508-CFTR (Homo sapiens, UniProt P13569, DEL508-508)
T1 construct: expressed in transfected cells
Assay: Assays for detecting and measuring ΔF508-CFTR correction properties (membrane potential optical assay, FRET voltage-sensor dyes)
Format: cell-based
Conditions: NIH3T3 mouse fibroblasts stably expressing ΔF508-CFTR; percent activity bins
From the text: Assays for Detecting and Measuring ΔF508-CFTR Correction Properties of Compounds
Membrane Potential Optical Methods for Assaying ΔF508-CFTR Modulation Properties of Compounds
The optical membrane potential assay utilized voltage-sensitive FRET sensors described by Gonzalez and Tsien (See, Gonzalez, J. E. and R. Y. Tsien (1995) “Voltage sensing by fluorescence resonance energy transfer in single cells” Biophys J 69(4): 1272-80, and Gonzalez, J. E. and R. Y. Tsien (1997) “Improved indicators of cell membrane potential that use fluorescence resonance energy transfer” Chem Biol 4(4): 269-77) in combination with instrumentation for measuring fluorescence changes such as the Voltage/Ion Probe Reader (VIPR) (See, Gonzalez, J. E., K. Oades, et al. (1999) “Cell-based assays and instrumentation for screening ion-channel targets” Drug Discov Today 4(9): 431-439).
These voltage sensitive assays are based on the change in fluorescence resonant energy transfer (FRET) between the membrane-soluble, voltage-sensitive dye, DiSBAC2(3), and a fluorescent phospholipid, CC2-DMPE, which is attached to the outer leaflet of the plasma membrane and acts as a FRET donor. […] The changes in fluorescence emission were monitored using VIPR™ II, which is an integrated liquid handler and fluorescent detector designed to conduct cell-based screens in 96- or 384-well microtiter plates. […]

T1 sequence (P13569 with tags, fused parts or gaps DEL508-508): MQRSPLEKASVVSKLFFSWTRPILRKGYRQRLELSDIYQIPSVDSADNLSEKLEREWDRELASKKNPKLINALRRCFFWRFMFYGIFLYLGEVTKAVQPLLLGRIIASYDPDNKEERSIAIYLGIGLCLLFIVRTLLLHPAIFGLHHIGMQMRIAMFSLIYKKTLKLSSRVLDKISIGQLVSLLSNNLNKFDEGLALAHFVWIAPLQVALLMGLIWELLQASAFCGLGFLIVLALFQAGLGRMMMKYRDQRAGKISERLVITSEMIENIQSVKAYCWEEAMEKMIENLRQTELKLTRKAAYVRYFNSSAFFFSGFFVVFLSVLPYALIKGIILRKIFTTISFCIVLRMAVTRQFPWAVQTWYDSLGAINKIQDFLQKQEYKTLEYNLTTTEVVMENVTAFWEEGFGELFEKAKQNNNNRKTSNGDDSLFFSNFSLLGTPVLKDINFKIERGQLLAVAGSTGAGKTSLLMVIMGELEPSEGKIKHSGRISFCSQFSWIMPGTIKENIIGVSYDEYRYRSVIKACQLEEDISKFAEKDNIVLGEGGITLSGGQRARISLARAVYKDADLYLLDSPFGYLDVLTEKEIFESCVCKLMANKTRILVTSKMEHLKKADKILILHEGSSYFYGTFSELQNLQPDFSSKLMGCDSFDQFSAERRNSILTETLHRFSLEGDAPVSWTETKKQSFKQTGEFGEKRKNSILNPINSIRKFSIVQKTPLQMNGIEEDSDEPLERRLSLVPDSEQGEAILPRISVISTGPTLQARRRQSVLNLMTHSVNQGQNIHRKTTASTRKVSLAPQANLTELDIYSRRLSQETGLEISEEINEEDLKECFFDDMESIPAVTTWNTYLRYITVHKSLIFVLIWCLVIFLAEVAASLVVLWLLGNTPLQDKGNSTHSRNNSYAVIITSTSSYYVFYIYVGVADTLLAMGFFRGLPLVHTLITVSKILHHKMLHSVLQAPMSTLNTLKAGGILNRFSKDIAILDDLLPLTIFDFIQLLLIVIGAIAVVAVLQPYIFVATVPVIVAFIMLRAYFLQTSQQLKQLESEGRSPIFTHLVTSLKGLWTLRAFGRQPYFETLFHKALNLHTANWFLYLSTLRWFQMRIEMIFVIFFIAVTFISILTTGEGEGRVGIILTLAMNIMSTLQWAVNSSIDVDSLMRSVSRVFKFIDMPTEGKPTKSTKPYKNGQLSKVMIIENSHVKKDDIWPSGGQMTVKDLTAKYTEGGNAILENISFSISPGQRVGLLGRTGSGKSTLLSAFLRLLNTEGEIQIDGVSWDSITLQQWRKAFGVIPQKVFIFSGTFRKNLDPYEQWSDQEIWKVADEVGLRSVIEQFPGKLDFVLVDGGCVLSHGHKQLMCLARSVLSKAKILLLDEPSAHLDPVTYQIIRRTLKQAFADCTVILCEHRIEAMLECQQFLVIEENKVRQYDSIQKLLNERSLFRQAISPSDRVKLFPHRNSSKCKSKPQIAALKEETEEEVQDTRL

Binned MaxEfficacy (PercentActivity): +++ (100.0 < +++)
Structure (SMILES): CC(C)(CO)c1cc2cc(NC(=O)C3(c4ccc5c(c4)OC(F)(F)O5)CC3)c(F)cc2n1C[C@@H](O)CO [Compound 1, (R)-1-(2,2-difluorobenzo[d][1,3]dioxol-5-yl)-N-(1-(2,3-dihydroxypropyl)-6-fluoro-2-(1-hydroxy-2-methylpropan-2-yl)-1H-indol-5-yl)cyclopropanecarboxamide]

Reference: patent US10071979B2, “Process of producing cycloalkylcarboxamido-indole compounds” (Vertex Pharmaceuticals Incorporated, priority 2010, dated 2018)
